Test results taken from publication PMC10451034, “Highly Efficient Photosensitizers with Molecular Vibrational Torsion for Cancer Photodynamic Therapy” (ACS Central Science, 2023).

Tests used:
[1] = tested on: HepG2 cells; test: MTT cytotoxicity assay, HepG2; assay type: cell-based, human; details: Homo sapiens, HepG2, light or radiation study, HepG2, 660 nm irradiation 12 J/cm^2
From the text: To further quantitatively explore the in vitro anticancer potency of QTCy7-R, the methyl thiazolyltetrazolium (MTT) assay was employed to detect cell viability. […] Next, we evaluated the cytotoxicity under dark conditions of this series of compounds at high concentrations (Figure 9e), as due to the characteristics of mitochondrial accumulation, QTCy7-Me and QTCy7-Ph might lead to mitochondrial depolarization and apoptosis at high concentrations. However, its IC50 value could still reach about 60 μM, which was almost […] than those of all cyanine photosensitizers reported. […] The photocytotoxicity index value (dark IC50/light IC50) of QTCy7-Ac was >500, manifesting that QTCy7-Ac is a PS with high efficacy but low cytotoxicity, which is extremely promising in clinical application. […]
Cytotoxicity was tested by the reduction of methyl thiazolyl tetrazolium to formazan by succinic acid dehydrogenase in the mitochondria of living cells (MTT assay). HepG2 cells, MCF7 cells and 4T1 cells were seeded to 96-well microplates (Nunc, Denmark) with a density of 1 × 10^5 cells/mL cells in 100 μL DMEM medium and incubated at 37 °C for 24 h. When the cell density reached about 70%, the QTCy7-R with different concentrations (4, 3, 2, 1.5, 1, 0.75, 0.5, 0.25, 0 μM) in PBS were added to the wells of cells in dark condition, respectively. For light groups, the cell incubation conditions were the same as those of the dark group and the cells were further incubated for 2 h, subsequently, the cells were subjected to 660 nm irradiation (20 mW/cm2) for different time (10 min, 5 min and 2.5 min) corresponding to different light doses (12 J/cm2, 6 J/cm2 and 3 J/cm2). Then all the cells were incubated for 12 h, after which the MTT solution in DMEM (0.5 mg/ml, 100 μL) was added to each well and the cells were incubated at 37 °C for another 4 h. The MTT solution was carefully removed and 100 μL DMSO was added to dissolve formazan, and the absorbance of each well was measured by a multifunctional microplate reader at 570 nm and 630 nm. The cell viability was obtained by the following equation: […]
Where “OD” represent the absorbance at 570 nm and 630 nm, “ps” and “control” represent experimental groups and control groups, respectively. […]

[2] = Singlet oxygen quantum yield by DPBF decay curve method; assay type: physicochemical; details: in dichloromethane
Procedure: Afterward, the singlet oxygen yields of the series of molecules were preliminarily measured and analyzed by the 1,3-diphenylisobenzofuran (DPBF) decay curve method (Figures 2d,e and S2). […] Meanwhile, in order to exclude the effect of the rigid structure, ΦΔ of a Cy7-like reference molecule (TCy7C) with a rigidified structure but absence of an oxygen atom was measured. The singlet oxygen yield of TCy7C was 2.2%, even lower than that of TCy7 under the same conditions (Figure S3). […]
Photoexcited singlet oxygen production was detected by employed 1,3-diphenylisobenzofuran (DPBF) as the indicator. The absorbance of DPBF at 415 nm was regulated to about 1.0 in DCM. And the samples were irradiated with 660 nm light for various times, then the absorption spectra of different time nodes were recorded.
The singlet oxygen quantum yield (ΦΔ) was calculated by the following equation:
Where “Φ” represent the singlet oxygen quantum yield , “sam” and “std” represent QTCy7-R and MB, respectively. “m” is the slope of the absorbance of DPBF at 415 nm with time, F=1–10-O.D. (O.D. is the absorbance of samples at 660 nm). […]

[3] = UV-vis absorption, fluorescence emission, absolute fluorescence quantum yield and fluorescence lifetime; assay type: physicochemical
Procedure: First, the UV–vis absorption and fluorescence emission spectra of the series of compounds were measured and analyzed. […] Concurrently, the Stokes shifts of all four compounds were more than 60 nm (Figure 2a,b and Table 1), which could effectively improve the signal-to-noise ratio (SNR) of fluorescence compared to the ordinary TCy7. The fluorescence lifetimes of all four compounds were within 2 ns, indicating no delayed fluorescence generation (Figure 2c and Table 1). […]
Materials and Instrumentation
All the general chemicals used in this paper are purchased from Energy Chemical Co. and Innochem Chemical Co. unless otherwise specified. All solvents were […]
analytically pure. […]
All the other solvents and reagents used in this study were of analytical grade. All the BALB/c mice were purchased from Liaoning […]
III 500 spectrometers. Absorption and emission spectra for all the compounds were achieved on the Agilent Technologies CARY 60 UV -Vis spectrophotometer and VAEIAN CARY Eclipse fluorescence spectrop hotometer (Serial No. FL0812 -M018), […]
respectively. Unless otherwise specified, all spectroscopic tests were performed in a quartz cell (10×10 mm). Fluorescence quantum yield of all the compounds were measured on the HAMAMATSU absolute fluorescence quantum yield spectrometer (Serial No. C11347). Triplet lifetime of compounds were acquired on LP980 laser flash photolysis spectrometer (Edinburgh Instruments, U.K.). The cell confocal laser scanning microscope (CLSM) images were all obtained by using Olympus FV3000 confocal laser scanning microscope. […]
Figure 4, Figure S6 and Figure S7). The spin-orbital coupling (SOC) values between the S1/S1V and T2 were calculated with ORCA 4.13. Hole-Electron analysis was carried […]
ISC rate constants calculation […]
Triplet lifetime measurements
The triplet life of QTCy7-R was measured by LP980 laser flash photolysis spectrometer (Edinburgh Instruments Ltd.) in combination with a Nd:YAG laser (Surelite I-10, Continuum Electro-Optics, Inc.). The oxygen in the sample was removed by aerating nitrogen for 30 min. The samples (5 μM) were excited by a 610 nm laser pulse (1 Hz, 100 mJ per pulse, fwhm ≈ 7 ns) at 300 K. The triplet state decay kinetics were measured at the maximum absorption wavelengths of each compound.
Fluorescence lifetime and femtosecond time-resolved transient absorption spectra […]
The fluorescence lifetimes and femtosecond time-resolved transient absorption spectra of dyes were recorded on a freshly prepared samples using the time-correlated single photon counting (TCSPC) method (PicoQuant PicoHarp 300) at 300 K. The concentration is 10 μM, solvent is DCM.
Hepatoma carcinoma cells (HepG-2 cells), human mammary carcinoma (MCF-7) and mouse breast cancer cells (4T1) were maintained in Dulbecco’s modified Eagle’s

Row | Structure (SMILES) | IC50 [1] [µM] | ΦΔ, singlet oxygen yield ([2]; DPBF method) [%] | ΦΔ, singlet oxygen quantum yield ([2]; methylene blue as standard, 660 nm irradiation) | ΦF, absolute fluorescence quantum yield [3] [%] | Δλ, Stokes shift ([3]; in dichloromethane) [nm] | λabs, maximum absorption wavelength ([3]; in dichloromethane) [nm] | λem, maximum emission wavelength ([3]; in dichloromethane) [nm] | τS, fluorescence lifetime ([3]; in dichloromethane) [ns]
1 | C=Cc1c(C)c2cc3nc(c(CC(=O)O)c4[nH]c(cc5nc(cc1[nH]2)C(C)=C5CC)c(C)c4C(=O)O)[C@@H](CCC(=O)O)[C@@H]3C [Ce6, chlorin e6, reference compound] | 3.5 | – | – | – | – | – | – | –
2 | CCN1/C(=C/C=C/C=C/C=C/c2sc3ccccc3[n+]2CC)Sc2ccccc21 [TCy7, reference compound] | – | 2.6 | 0.026 | 19.3 | 23 | 770 | 793 | 1.54
